Data from patent US9464078B2, “Monohydrate of azaadamantane derivatives” (AbbVie Inc., priority 2010, dated 2016).
Counter-ions that a name gives are not always drawn. Like-named read-outs stand apart in the source and are kept apart here. Each block holds one compound with its values, some of them ahead of it.

Legend:
Assay type in all cases: physicochemical
solubility in water = experiment: solubility in water
[1] = hygroscopicity by dynamic moisture sorption balance
Experimental: Dynamic moisture sorption balance (DMSB) was used to evaluate the hygroscopicity of the crystalline monohydrate compound. The hygroscopicity was evaluated using a dynamic moisture sorption balance (IGAsorp, Hiden Isochema) equipped with a data analyzer. The balance was calibrated using standardized weights of 20, 50, and 100 mg. The RH probe was calibrated using standardized salt solutions of lithium chloride, potassium carbonate, and sodium chloride. During the experiment, the flow rate of nitrogen gas at different relative humidity was 250 mL/min. For anhydrous materials, the sample was first dried with dry nitrogen at 50° C. for two hours. The temperature was then set to 25° C. and the relative humidity was changed from 0% to 90% and back to 0% at 10% intervals. For hydrated samples the temperature was set to 25° C. and the relative humidity was changed at 10% intervals from 30% to 90%, back to 10%, and then to 90%. For each step described herein, a one hour equilibration time period was used.

[2] = critical water activity for hydrate formation (PXRD of solids from methanol/water suspensions); conditions: ambient temperature
Text: The critical water activity of the monohydrate salt can be determined by mixing different ratios of organic solvents and water. The analysis of the water activity for these solvent mixtures are temperature dependent. Determination of the critical water activity typically comprises the following steps: (1) preparation of solvent mixtures with a range of water activities; (2) saturation of the organic solvent/water mixtures with the monohydrate salt; (3) the optional filtration of the saturated solution; (4) addition of a 1:1 solid mixture (e.g., 25 mg/phase) of the anhydrous and hydrated phases to the saturated organic solvent/water mixtures; (5) equilibration at the temperature of interest (3-5 days); and (6) analysis of the residual solids by the appropriate technique, as understood by one skilled in the art (e.g., PXRD) to determine the identity of the stable phases.
The inventors determined the critical water activity for (4s)-4-(5-phenyl-1,3,4-thiadiazol-2-yloxy)-1-azatricyclo[3.3.1.1^3,7]decane dihydrogen citrate monohydrate at ambient temperature. Specifically, the inventors developed suspensions of the crystalline product in mixtures of methanol and water, with water activities of 0.20, 0.15, 0.10, and 0.05, performing powder X-ray diffraction patterns for each suspension, respectively. […]

- solubility (solubility in water): 28 mg/mL
- hygroscopicity (in words) [1]: non-hygroscopicity
Structure (SMILES): c1ccc(-c2nnc(O[C@@H]3C4CC5C[C@H]3C[N@](C5)C4)s2)cc1 [dihydrogen citrate anhydrate, (4s)-4-(5-phenyl-1,3,4-thiadiazol-2-yloxy)-1-azatricyclo[3.3.1.1^3,7]decane dihydrogen citrate]

- hygroscopicity (in words) ([1]; citrate monohydrate): non-hygroscopic
- hygroscopicity (in words) ([1]; listed as crystalline monohydrate of (4s)-4-(5-phenyl-1,3,4-thiadiazol-2-yloxy)-1-azatricy, citrate monohydrate): non-hygroscopic
- weight change by dynamic moisture sorption ([1]; relative humidities from 0% to 90%, listed as crystalline monohydrate of (4s)-4-(5-phenyl-1,3,4-thiadiazol-2-yloxy)-1-azatricy, citrate monohydrate): < 0.2%
Structure (SMILES): c1ccc(-c2nnc(O[C@@H]3C4CC5C[C@H]3C[N@](C5)C4)s2)cc1 [dihydrogen citrate monohydrate, (4s)-4-(5-phenyl-1,3,4-thiadiazol-2-yloxy)-1-azatricyclo[3.3.1.1^3,7]decane dihydrogen citrate monohydrate]

- water activity of solvent at which the salt exists as the anhydrate [2]: ≤ 0.10
- water activity of solvent at which the salt exists as the monohydrate [2]: ≥ 0.15
Structure (SMILES): c1ccc(-c2nnc(O[C@@H]3C4CC5C[C@H]3C[N@](C5)C4)s2)cc1 [(4s)-4-(5-phenyl-1,3,4-thiadiazol-2-yloxy)-1-azatricyclo[3.3.1.1^3,7]decane dihydrogen citrate]
